Tests used:
[1] = tested on: MCF-7/ADR cells; experiment: MTT assay, doxorubicin-resistant cells; assay type: cell-based; conditions: Homo sapiens, NCI/ADR-RES, 72 h treatment, n = 3, read-out: IC50 (µM ± SD) MCF-7/ADR
Description: (§1) MCF-7 (human breast adenocarcinoma), A2780 (human ovarian cancer) and HCT116 (human colorectal carcinoma), and MRC-5 (normal foetal lung fibroblast) cell lines were bought from the ATCC and were cultured in flasks which were incubated at 37 °C in an atmosphere of 5% CO2, 95% air, and 100% relative humidity, to maintain continuous logarithmic growth. MCF-7, A2780, and HCT116 were maintained in RPMI-1640 media (100 U/mL penicillin, 100 µg/mL streptomycin, and 10% foetal bovine serum, Gibco, Carlsbad, CA). MRC-5 cells were maintained in EMEM (100 U/mL penicillin, 100 µg/mL streptomycin, and 10% foetal bovine serum, Gibco, Carlsbad, CA). Doxorubicin (5 μg/mL, for three months) added for RPMI-1640 media containing MCF7 cells was used to develop doxorubicin-resistant MCF7/ADR cells. All cancer and normal cell lines were cultured according to our previous report. Cells were used within 10–20 passages and were checked for mycoplasma every 6 months, by measuring the bioluminescence (Myco Alert sample detection kit; Lonza, Basel, Switzerland) using the multiplate reader (Synergy HT, BioTek, Winooski, VT).
The MTT assay was used to measure the cytotoxicity and growth inhibitory activities and cytotoxicity of the new compounds according to our previous report[13]^,[17]. Cells from flasks of 70–80% confluency were separately seeded in 96-well flat-bottom microculture plates (Nalgene-Nunc, Thermo Fisher Scientific, Roskilde, Denmark) at a density of 3 × 10^3 cells (MCF-7, A2780, and MRC-5), 1 × 10^4 cells (HCT116), to a volume of 180 μL/well of culture medium. A Neubauer haemocytometer was used for cell counting. Cells were incubated at 37 °C overnight to allow attachment to the wells. The final concentrations of each compound in wells were: 0–50 μM in 200 μL of media (DMSO 0.1%). Lapatinib (Cayman, Ann Arbor, MI) was used as a positive control at the same final concentrations. […] Cytotoxicity of the new compounds was calculated after treatment of cancer/normal cell lines for 72 h. The absorbance of the reduced MTT was determined using a microplate reader A570 nm. […]

[2] = target: T1, porcine tubulin (Sus scrofa, UniProt P02550+P02554); experiment: Tubulin polymerisation fluorescence-based assay; assay type: biochemical; conditions: 5 μM, 37 °C, 60 min; qualitative
T1 construct: purchased Cytoskeleton Inc., Denver, CO BK011P
Description: The effect of compounds 16a,b,d on tubulin polymerisation was measured in vitro using tubulin polymerisation fluorescence-based assay (cytoskeleton, cat. BK011P, https://www.cytoskeleton.com/bk011p). The assay was performed following the previous report[22] and according to the manufacturer’s instructions. Briefly, 2 mg/mL porcine tubulin was dissolved in buffer 1 (80 mM PIPES, 2 mM MgCl2, 0.5 mM EGTA pH 6.9, 10 µM fluorescent reporter, 1 mM GTP, 15% glycerol) to a final concentration of […]. Then tubulin solution was transferred to a pre-warmed 96-well plate that contained the test compounds 16a,b,d (5 μM), paclitaxel (3 μM), CaCl2 (0.5 μM), and control buffer. The polymerisation of tubulin was monitored as fluorescence at 37 °C for 60 min. Relative fluorescence units (RFU) were determined at 360 nm for excitation and at 460 nm for emission using the Varioskan Flash spectral scanning multimode reader (Thermo Fisher Scientific, Roskilde, Denmark) at a reading speed of 1 cycle/min.
In the current study, the new compounds were designed bearing the trimethoxy phenyl moiety aiming to obtain new cytotoxic agents that can interfere with tubulin polymerisation in cancer cells. […] In this assay, light scattering by microtubules which is directly proportional to the concentration of the microtubule polymer was used as a measure of tubulin polymerisation. The study was performed using a fluorescence-based tubulin polymerisation assay kit (Cytoskeleton Inc., Denver, CO; Cat # BK011P) following the manufacturer’s instructions (https://www.cytoskeleton.com/bk011p) and according to the previous report.
Paclitaxel (3 μM) was used as a tubulin polymerisation enhancer (positive control, enhancer), while calcium chloride (CaCl2, 0.5 μM) was used as a positive control (inhibitor) as per the manufacturer’s instructions (https://www.cytoskeleton.com/pdf-storage/datasheets/bk011p.pdf). The vehicle was also used to evaluate the polymerisation when tubulin is incubated in the absence of the test compound. The effect of the selected compounds (5 μM) on tubulin polymerisation was evaluated and compared with those of the positive control. The results are represented in Figure 8.

[3] = tested on: HCT116; experiment: MTT cell proliferation assay; assay type: cell-based, human; conditions: for IC50: Homo sapiens, HCT-116, MTT, 72 h treatment, n = 3, read-out: IC50 (µM ± SD) HCT116; for Selectivity index HCT116: IC50 MRC-5 / IC50 HCT116
Description: as §1
(§2) The MTT assay was used to measure the cytotoxicity and growth inhibitory activities and cytotoxicity of the new compounds according to our previous report[13]^,[17]. Cells from flasks of 70–80% confluency were separately seeded in 96-well flat-bottom microculture plates (Nalgene-Nunc, Thermo Fisher Scientific, Roskilde, Denmark) at a density of 3 × 10^3 cells (MCF-7, A2780, and MRC-5), 1 × 10^4 cells (HCT116), to a volume of 180 μL/well of culture medium. A Neubauer haemocytometer was used for cell counting. Cells were incubated at 37 °C overnight to allow attachment to the wells. The final concentrations of each compound in wells were: 0–50 μM in 200 μL of media (DMSO 0.1%). Lapatinib (Cayman, Ann Arbor, MI) was used as a positive control at the same final concentrations. Medium only (20 μL) was added to each control well, and each concentration was tested in triplicates (n = 3). Following incubation for 72 h, 50 μL MTT was added into each well. Plates were incubated for 3 h, the supernatant was aspirated, and 100 μL of DMSO was added to each well. The optical density (OD) of the purple formazan is proportional to the number of viable cells. […] GraphPad Prism version 5.00 for Windows was used for analysis (La Jolla, CA). Cytotoxicity of the new compounds was calculated after treatment of cancer/normal cell lines for 72 h. The absorbance of the reduced MTT was determined using a microplate reader A570 nm.
(§3) The cytotoxic activity of the new compounds (15a–e, 16a–e, 20, and 21) was evaluated in vitro using MTT assay. The MTT assay depends on the reduction of the yellow tetrazole dye (MTT) to the purple formazan by the active mitochondrial dehydrogenase enzymes indicating the viability of the cells which can be measured as OD. The new compounds were evaluated against three non-resistant cancer cell lines: MCF-7, and A2780 cell lines were selected to compare cytotoxicity of the new compounds with the previously reported results of compounds 9a,b[13]. Cytotoxicity of the new compounds was also evaluated also against HCT116 cells which lacks COX-2 protein[33]^,[34].

[4] = tested on: A2780; experiment: MTT cell proliferation assay; assay type: cell-based, human; conditions: for IC50: Homo sapiens, A2780, MTT, 72 h treatment, n = 3, read-out: IC50 (µM ± SD) A2780; for Selectivity index A2780: IC50 MRC-5 / IC50 A2780
Description: as §1, §2, §3

[5] = tested on: MCF-7; experiment: MTT cell proliferation assay; assay type: cell-based, human; conditions: for IC50: Homo sapiens, MCF7, MTT, 72 h treatment, n = 3, read-out: IC50 (µM ± SD) MCF-7; for Selectivity index MCF-7: IC50 MRC-5 / IC50 MCF-7
Description: as §1, §2, §3

[6] = tested on: MCF-7, HCT116, and A2780 cancer cell lines; experiment: MTT assay, three cancer cell lines taken together (average, overall range); assay type: cell-based, human; conditions: Homo sapiens; MCF-7, HCT116, A2780; read-out: Average of the three IC50 values against the three cancer cell lines
Description: Cells from flasks of 70–80% confluency were separately seeded in 96-well flat-bottom microculture plates (Nalgene-Nunc, Thermo Fisher Scientific, Roskilde, Denmark) at a density of 3 × 10^3 cells (MCF-7, A2780, and MRC-5), 1 × 10^4 cells (HCT116), to a volume of 180 μL/well of culture medium. […] The final concentrations of each compound in wells were: 0–50 μM in 200 μL of media (DMSO 0.1%). Lapatinib (Cayman, Ann Arbor, MI) was used as a positive control at the same final concentrations. Medium only (20 μL) was added to each control well, and each concentration was tested in triplicates (n = 3). Following incubation for 72 h, 50 μL MTT was added into each well. Plates were incubated for 3 h, the supernatant was aspirated, and 100 μL of DMSO was added to each well. The optical density (OD) of the purple formazan is proportional to the number of viable cells. […] The absorbance of the reduced MTT was determined using a microplate reader A570 nm.

T1 sequence (P02550 whole entry): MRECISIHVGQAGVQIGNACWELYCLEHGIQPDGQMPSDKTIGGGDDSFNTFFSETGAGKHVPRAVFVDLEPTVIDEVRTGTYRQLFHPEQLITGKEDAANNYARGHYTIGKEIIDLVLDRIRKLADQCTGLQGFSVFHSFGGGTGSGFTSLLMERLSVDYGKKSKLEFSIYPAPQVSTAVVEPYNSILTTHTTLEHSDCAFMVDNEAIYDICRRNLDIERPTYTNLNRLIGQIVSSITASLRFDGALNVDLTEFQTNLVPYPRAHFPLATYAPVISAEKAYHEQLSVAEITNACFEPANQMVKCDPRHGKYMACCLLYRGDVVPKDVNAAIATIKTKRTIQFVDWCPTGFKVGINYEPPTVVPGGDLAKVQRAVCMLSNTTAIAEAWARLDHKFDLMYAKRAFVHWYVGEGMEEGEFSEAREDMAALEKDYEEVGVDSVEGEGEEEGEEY
T1 sequence (P02554 whole entry): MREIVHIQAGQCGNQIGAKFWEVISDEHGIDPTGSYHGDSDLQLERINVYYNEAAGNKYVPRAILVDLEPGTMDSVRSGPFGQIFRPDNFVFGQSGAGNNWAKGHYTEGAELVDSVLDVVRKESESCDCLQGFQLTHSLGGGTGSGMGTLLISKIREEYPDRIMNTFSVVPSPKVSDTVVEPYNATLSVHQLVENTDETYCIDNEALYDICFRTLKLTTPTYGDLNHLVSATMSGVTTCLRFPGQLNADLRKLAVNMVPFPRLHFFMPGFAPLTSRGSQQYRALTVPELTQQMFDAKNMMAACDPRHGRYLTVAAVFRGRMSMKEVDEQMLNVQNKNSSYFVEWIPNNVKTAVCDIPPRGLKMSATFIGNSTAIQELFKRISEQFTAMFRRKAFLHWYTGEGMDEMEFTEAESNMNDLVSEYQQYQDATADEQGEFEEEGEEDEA

Row | IC50 [1] | effect on tubulin polymerisation [2] | IC50 [3] | IC50 [4] | IC50 [5] | IC50 [6] | Compound | Selectivity index HCT116 [3] | Selectivity index A2780 [4] | Selectivity index MCF-7 [5]
1 | 1.57 ± 0.04 µM | weak | 0.135 ± 0.007 µM | 0.044 ± 0.01 µM | 0.082 ± 0.002 µM | 0.087 µM | COc1cc(C(=O)Nc2c(C#N)c3n(c2C(=O)Nc2ccccc2)CCC3)cc(OC)c1OC [16a, 7-Cyano-N-phenyl-6-(3,4,5-trimethoxybenzamido)-2,3-dihydro-1H-pyrrolizine-5-carboxamide] | 1.15 | 3.52 | 1.89
2 | 6.26 ± 0.71 µM | moderate inhibitory activity | 0.092 ± 0.001 µM | 0.18 ± 0.043 µM | 0.068 ± 0.009 µM | 0.113 µM | COc1cc(C(=O)Nc2c(C#N)c3n(c2C(=O)Nc2ccc(C)cc2)CCC3)cc(OC)c1OC [16b, 7-Cyano-N-(p-tolyl)-6-(3,4,5-trimethoxybenzamido)-2,3-dihydro-1H-pyrrolizine-5-carboxamide] | 63.60 | 32.51 | 86.04
3 | 0.52 ± 0.066 µM | moderate inhibitory activity | 0.097 ± 0.001 µM | 0.03 ± 0.005 µM | 0.071 ± 0.001 µM | 0.066 µM | COc1cc(C(=O)Nc2c(C#N)c3n(c2C(=O)Nc2ccc(Cl)cc2)CCC3)cc(OC)c1OC [16d, N-(4-Chlorophenyl)-7-cyano-6-(3,4,5-trimethoxybenzamido) -2,3-dihydro-1H-pyrrolizine-5-carboxamide] | 83.51 | 270.00 | 114.08
